Experiments:
[1] = system: endogenous MEF2A; test: Immunoblot of sumoylation and acetylation of endogenous MEF2A in depolarized granule neurons; format: cell-based, rat
Description: In FIG. 3F, granule neurons in non-depolarizing concentrations of KCl (5 mM) were lysed in the presence or absence of the isopeptidase inhibitor N-ethylmaleimide (NEM) and immunoblotted for MEF2A. […] In FIG. 3G, granule neurons are exposed to media containing non-depolarizing (5 mM) or depolarizing (25 mM) concentrations of KCl in the presence of nimodipine (Nim) or its control vehicle (DMSO) were lysed in the presence of NEM and immunoblotted as in FIG. 3F. […] Cultures of primary granule neurons were isolated from P6 Long-Evans rats using known methods. Granule neurons were maintained in full medium (BME+10% calf serum (Hyclone), 1 mM each penicillin, streptomycin and L-glutamine and 25 mM KCl).

[2] = system: MEF2A Ser408; test: Immunoblot of phospho-Ser408 MEF2A in depolarized granule neurons; format: cell-based, rat; conditions: granule neurons depolarized with 25 mM KCl; Nim 20 μM, CsA 4 μM
Description: Lysates of granule neurons were depolarized with 25 mM KCl were immunoblotted for MEF2A, phospho-Ser408 MEF2A or ERK1/2. Nim=Nimodipine, 20 μM.
Cultures of primary granule neurons were isolated from P6 Long-Evans rats using known methods. Granule neurons were maintained in full medium (BME+10% calf serum (Hyclone), 1 mM each penicillin, streptomycin and L-glutamine and 25 mM KCl). Granule neurons were transfected in DMEM by DNA-calcium phosphate precipitation using standard methods.

[3] = system: Nur77 promoter; test: Nur77-luciferase reporter gene assay in granule neurons; format: cell-based, rat; conditions: depolarized granule neurons
Description: FIG. 5C is a bar graph. […] Treatment with CsA prevented depolarization-induced expression of the WT Nur77-luciferase reporter gene (p<0.0001, ANOVA; n=6), but had no effect on MREmut Nur77-luciferase reporter gene.
(§1) Luciferase assays were performed as described (Shalizi et al., 2006, Science 311: 1012-1017) with minor modifications. Granule neurons were transfected with the reporter constructs pNur77-luc or pNur77mut-luc and pRL-TK and the indicated hpRNA expression plasmids, and an expression construct for Bcl-XL. Granule neurons were switched from full medium to fresh BME supplemented with 5% calf serum (Hyclone) 72 hours after transfection and incubated overnight. 293T cells maintained as described were cotransfected with p5G4luc or pMEF2×3luc and pRL-TK reporter constructs and the indicated expression plasmids by DNA-calcium phosphate precipitation. Fresh growth media was added within 24 hours of transfection. Cells were lysed 48 hours after transfection. In both neurons and 293T cells, firefly-and renilla-luciferase activities were determined using a dual-luciferase assay kit (Promega) according to the manufacturers instructions.
Primary rat cerebellar granule neurons were transfected with the U6/piasx1, U6/piasx2, or control U6 RNAi plasmid together with a luciferase reporter gene controlled by the Nur77 promoter containing two MEF2 response elements (MREs). […]

[4] = system: MEF2-response elements (MRE-luciferase); test: MRE-luciferase reporter gene assay in cells; format: cell-based; conditions: co-transfected expression plasmid
Description: FIG. 4B is a bar graph and a series of immunoblots. Cells coexpressing MEF2A and increasing amounts of MEF2A-SUMO together with a 3-MRE luciferase reporter gene (pMEF2×3-luc) and pRL-TK. […] Lysates were also immunoblotted for MEF2 or ERK1/2.
as §1
Sumoylation of MEF2A represses MEF2-dependent transcription. The effect of PIASx expression on MEF2-dependent transcription in cells was examined. […]

[5] = system: granule neuron dendritic claws; test: Dendritic claw number of granule neurons in organotypic cerebellar slices; format: cell-based, rat
Description: The role that MEF2A plays in synaptic dendritic development in the cerebellar cortex was determined. […] To visualize granule neurons undergoing postsynaptic differentiation, organotypic cerebellar slices prepared from postnatal day 9 (P9) rat pups were transfected with an expression plasmid encoding green fluorescent protein (GFP). Transfected granule neurons in the internal granular layer (IGL) had the typical small cell body with associated parallel axonal fibers and few dendrites (FIGS. 1A and 1B). Many dendrites harbored structures with the appearance of dendritic claws that were identified based on classic descriptions as: (i) located at the end of a dendrite, (ii) having cup- or sickle-like appearance, and (iii) displaying undulating or serrated inner surfaces (FIGS. 1C and 1D). […] The effect of MEF2A knockdown on granule neuron dendritic morphogenesis was next determined. Cerebellar slices were transfected with the U6/mef2a plasmid that encodes MEF2A hairpin RNAs (MEF2AhpRNA) or the control U6 plasmid together with a GFP expression plasmid.
Slices were prepared and processed using known methods. […]
Microscopy was carried out using standard methods. […] Images of transfected granule neurons were analyzed using SPOT software for dendritic length, number of primary dendrites, and number of branches per primary dendrite as described.

cyclosporin A
acetylation of endogenous MEF2A ([1]; depolarized neurons): decreased
sumoylation of endogenous MEF2A ([1]; depolarized neurons (25 mM KCl)): increased
depolarization-induced dephosphorylation of MEF2A at Ser408 [2]: blocked
MREmut Nur77-luciferase reporter gene ([3]; Nur77 promoter with mutant MRE): no effect
depolarization-induced expression of the WT Nur77-luciferase reporter gene ([3]; Nur77 promoter with wild type MRE): prevented

B1: PIASx: MEF2A SUMO E3 ligase; PIASxα and PIASxβ isoforms collectively (protein, UniProt O75928 1-621, looked up)
E3 SUMO-protein ligase PIAS2: MADFEELRNMVSSFRVSELQVLLGFAGRNKSGRKHDLLMRALHLLKSGCSPAVQIKIRELYRRRYPRTLEGLSDLSTIKSSVFSLDGGSSPVEPDLAVAGIHSLPSTSVTPHSPSSPVGSVLLQDTKPTFEMQQPSPPIPPVHPDVQLKNLPFYDVLDVLIKPTSLVQSSIQRFQEKFFIFALTPQQVREICISRDFLPGGRRDYTVQVQLRLCLAETSCPQEDNYPNSLCIKVNGKLFPLPGYAPPPKNGIEQKRPGRPLNITSLVRLSSAVPNQISISWASEIGKNYSMSVYLVRQLTSAMLLQRLKMKGIRNPDHSRALIKEKLTADPDSEIATTSLRVSLMCPLGKMRLTIPCRAVTCTHLQCFDAALYLQMNEKKPTWICPVCDKKAAYESLILDGLFMEILNDCSDVDEIKFQEDGSWCPMRPKKEAMKVSSQPCTKIESSSVLSKPCSVTVASEASKKKVDVIDLTIESSSDEEEDPPAKRKCIFMSETQSSPTKGVLMYQPSSVRVPSVTSVDPAAIPPSLTDYSVPFHHTPISSMSSDLPGLDFLSLIPVDPQYCPPMFLDSLTSPLTASSTSVTTTSSHESSTHVSSSSSRSETGVITSSGSNIPDIISLD
MRE-dependent transcription (luciferase reporter) [4]: potently inhibited
dendritic claw number on expression of the construct ([5]; cerebellar slices transfected with expression plasmid vs control vector): robustly increased

B2: PIASx-Res: wild type PIASx protein expressed from cDNA resistant to piasx2 hpRNAs (protein, UniProt O75928 1-621, looked up)
E3 SUMO-protein ligase PIAS2: MADFEELRNMVSSFRVSELQVLLGFAGRNKSGRKHDLLMRALHLLKSGCSPAVQIKIRELYRRRYPRTLEGLSDLSTIKSSVFSLDGGSSPVEPDLAVAGIHSLPSTSVTPHSPSSPVGSVLLQDTKPTFEMQQPSPPIPPVHPDVQLKNLPFYDVLDVLIKPTSLVQSSIQRFQEKFFIFALTPQQVREICISRDFLPGGRRDYTVQVQLRLCLAETSCPQEDNYPNSLCIKVNGKLFPLPGYAPPPKNGIEQKRPGRPLNITSLVRLSSAVPNQISISWASEIGKNYSMSVYLVRQLTSAMLLQRLKMKGIRNPDHSRALIKEKLTADPDSEIATTSLRVSLMCPLGKMRLTIPCRAVTCTHLQCFDAALYLQMNEKKPTWICPVCDKKAAYESLILDGLFMEILNDCSDVDEIKFQEDGSWCPMRPKKEAMKVSSQPCTKIESSSVLSKPCSVTVASEASKKKVDVIDLTIESSSDEEEDPPAKRKCIFMSETQSSPTKGVLMYQPSSVRVPSVTSVDPAAIPPSLTDYSVPFHHTPISSMSSDLPGLDFLSLIPVDPQYCPPMFLDSLTSPLTASSTSVTTTSSHESSTHVSSSSSRSETGVITSSGSNIPDIISLD
modifications: expressed from hpRNA-resistant cDNA
notes: wild type PIASx protein expressed from cDNA resistant to piasx2 hpRNAs
number of claws restored, relative to control U6 transfected cerebellar slices ([5]; expression in the background of piasx2 RNAi): ~80%

Reference: patent US20100112600A1, “Methods and compositions for modulating synapse formation” (priority 2006, published 2010)
